Measurements reported in PMC7692551, “Characterization of a Robust and pH-Stable Tannase from Mangrove-Derived Yeast Rhodosporidium diobovatum Q95” (Marine Drugs, 2020).

test system: T1, TanRd; assay: gallate ester hydrolysis, gallic acid release; format: biochemical, Rhodotorula diobovata; settings: kinetic assay conditions not stated
T1 construct: recombinant secreted from Yarrowia lipolytica, codon-optimised, XPR2 signal peptide, His-tag; ORF 1719 bp, 572 aa, predicted native signal peptide 1-19
Source text: gallate ester hydrolysis, gallic acid release on TanRd

| SMILES | Km [µM] |
| --- | --- |
| CCCOC(=O)c1cc(O)c(O)c(O)c1 [PG, propyl gallate] | 1490 |
| COC(=O)c1cc(O)c(O)c(O)c1 [MG, methyl gallate] | 2310 |
| O=C(O[C@@H]1Cc2c(O)cc(O)cc2O[C@@H]1c1cc(O)c(O)c(O)c1)c1cc(O)c(O)c(O)c1 [EGCG, epigallocatechin gallate] | 2190 |
| O=C(O[C@H]1Cc2c(O)cc(O)cc2O[C@@H]1c1ccc(O)c(O)c1)c1cc(O)c(O)c(O)c1 [CG, catechin gallate] | 1670 |
| O=C(O[C@@H]1Cc2c(O)cc(O)cc2O[C@@H]1c1ccc(O)c(O)c1)c1cc(O)c(O)c(O)c1 [ECG, epicatechin gallate] | 1650 |
